# US20220160669A1, “PARENTERAL NUTRITION FORMULATION” (BAXTER INTERNATIONAL INC., priority 2020, published 2022)
# Experiments:
# sIgA = test: IgA quantification (jejunal sIgA, ELISA); format: in vivo, pig; details: 10 mmol/L, compared to standard PN (s-PN)
# Text: (§1) Neonatal Yorkshire/Landrace cross bred piglets (n=72; six at a time from the same litter, repeating 12 times) were obtained from Oak Hill Genetics (Ewing, Ill.) after 48-hour sow reared for colostrum consumption and iron supplementation.
# Small intestine probes for IgA level determination were obtained by flushing the small intestine with chilled HBSS (Hank's Balanced Salt Solution). Nasal and bronchoalveolar washings for measurement of respiratory tract IgA levels were obtained by lavage with 1 mL phosphate-buffered saline solution under anesthesia. The washings were stored in a −80° C. freezer until IgA analysis. IgA was measured in small intestinal and respiratory tract washings by sandwich enzyme-linked immunosorbent assay using a polyclonal goat anti-mouse IgA (Sigma) to coat the plate, a purified mouse IgA (Zymed Laboratories, San Francisco, Calif.) as the standard, and a horseradish peroxidase-conjugated goat anti-mouse IgA (Sigma).
# [1] = test system: Neonatal Yorkshire/Landrace cross bred piglets; test: Duodenal mucosal resistance (Ussing chamber), PN-fed neonatal piglets; format: in vivo, pig; parameters: key to Duodenal mucosal resistance, Grouping (Fisher's LSD test): Groups that do not share a letter are significantly different; ab: Groups that do not share a letter are significantly different; b: Groups that do not share a letter are significantly different
# Text: It is known also that there is a relationship between intestinal epithelial integrity and intestinal health (Thomson et al., The Ussing chamber system for measuring intestinal permeability in health and disease, BMC Gastroenterology 2019; 19:98). Impairment of barrier function has been linked to intestinal diseases such as, for example, ulcerative colitis and Crohn's disease. The so-called Ussing system offers an ex vivo measurement of the permeability or duodenal mucosal resistance. The system allows to measure said duodenal mucosal (transepithelial) resistance (TER), which can be determined to give an overall measurement of gut integrity. A low TER value is indicative of increased permeability. Prior studies have shown that decreased TER under inflammatory conditions was associated with down regulation of “sealing” tight junctional proteins. Accordingly, determining epithelial integrity by means of the Ussing chamber constituted one option to assess the influence of various nutritional options (e.g. EN vs PN) and various PN compositions (see Example 3.5) on gut health and specifically on local inflammatory incidents.
# as §1
# Duodenal mucosal resistance was determined according to known methods and according to Tappenden et al., Short-Chain Fatty Acid-Supplemented Total Parenteral Nutrition Enhances Functional Adaptation to Intestinal Resection in Rats. Gastroenterology 1997; 112:792-802. Pieces of intestine (1 cm^2) were cut out, and the tissue was mounted as flat sheets in incubation chambers containing oxygenated Krebs' bicarbonate buffer (pH 7.4) at 37° C. Tissue discs were preincubated in this buffer for 15 minutes to allow equilibration at this temperature. After preincubation, the chambers were transferred to other beakers containing [^3H]inulin and various 14C probe molecules in oxygenated Krebs' bicarbonate (pH 7.4 and 37° C.). The concentration of solutes was 4, 8, 16, 32, or 64 mmol/L for D-glucose and 16 mmol/L for L-glucose. The preincubation and incubation solutions were mixed at identical stirring rates with circular magnetic bars, and the stirring rates were adjusted by means of a strobe light. A stirring rate of 600 rpm was selected to achieve low effective resistance of the intestinal unstirred water. The experiment was terminated by removing the chambers and quickly rinsing the tissue in cold saline for approximately 5 seconds. The exposed mucosal tissue was then cut out of the chamber with a circular steel punch. For all probes, the tissue was dried overnight in an oven at 55° C. The dry weight of the tissue was determined, the sample was saponified with 0.75N NaOH, scintillation fluid was added (Beckman Ready Solv HP; Beckman, Mississauga, ON), and radioactivity was determined by means of […] an external standardization technique to correct for variable quenching of the two isotopes. The mucosal weight was determined after scraping of the intestine from adjacent samples not used for uptake studies. The weight of the mucosa in the samples used to measure uptake was determined by multiplying the dry weight of the intestinal sample by the percentage of the intestinal wall comprised of mucosa.
# [2] = Stability of butyrate derivative compositions (sterilization, shelf-life)
# [3] = test system: Neonatal Yorkshire/Landrace cross bred piglets; test: Intestinal histomorphology: villus height and crypt depth; format: in vivo, pig; parameters: key to Villus (total) / Crypt (total): + denotes a positive effect (compared to standard PN); ++ a very positive effect; − denotes no difference; key to Total villus height / Total crypt depth: +++ indicate P < 0.01; ++ indicates P < 0.05; + indicates positive trends; = denotes no significant P value; − denotes negative trends
# Procedure: as §1
# Formalin-fixed intestinal samples were embedded in paraffin, sliced to approximately 5-μm thickness with a microtome and stained with hematoxylin and eosin (FIG. 6). Villus height, midvillus width, and crypt depth were measured by using a Nikon Optiphot-2 microscope (Nikon, Melville, N.Y.) and ImagePro Express software (Version 4.5; Media Cybernetics, Inc, Silver Spring, Md.) in 8 to 10 well-oriented villi and crypts. Villus surface area (villus height×midvillus width) was also calculated. In addition, intestinal segment circumference was measured to estimate intestinal surface area. The results are provided in FIGS. 7 through 12 (see there for details). […] The Table summarizes the average difference (in % of each Intervention Group (A, B, C, D) versus the PN Group) of the villus height and the crypt depth in the different sections of the gut, i.e. duodenum, jejunum, ileum and colon. The Intervention Groups show an improved villus height compared to the s-PN Group.
# [4] = 10 mmol/L, compared to standard PN (s-PN)
# [5] = 10 mmol/L TPN (Groups A, C, D), sum over sections
# [6] = 10 mmol/L in PN, all sections, compared to standard PN
substance,measurement,setting,value
"L-arginine, butanoate (3:4) [Arginine butyrate]",Jejunal sIgA Concentration,sIgA,+++^3 (+++ indicate P < 0.01)
same,"duodenal mucosal resistance, in words","[1]; 10 mmol/L TPN (Groups A, C, D)",significantly lower loss of mucosal resistance compared to the other intervention groups
same,Mean duodenal mucosal resistance,"[1]; 10 mmol/L TPN (Groups A, C, D), N 12",8.2593
same,"Duodenal mucosal resistance, Grouping (Fisher's LSD test)","[1]; 10 mmol/L TPN (Groups A, C, D), PN group a, EN group b",b
same,"duodenal mucosal resistance, in words","[1]; 10 mmol/L TPN (Groups A, C, D), listed as C",significantly different from the PN
same,Duodenal Mucosal Resistance (Ussing chamber),[1]; [4],++^2 (++ indicates P < 0.05)
same,stable shelf-life,"[2]; 25° C. and 40% relative humidity (RH), in an amino acid formulation",at least 12 months
same,stability during production and sterilization,[2]; amino acid chamber / amino acid formulation,"stable during production, sterilization"
same,concentration at which aqueous composition is producible and stable,[2]; aqueous arginine butyrate composition,up to 5500 mg/L
same,"average duodenal crypt length (crypt depth, FIG. 8)",[3]; 10 mmol/L TPN,slightly better even than Groups A and D
same,average duodenal villous length (FIG. 7),[3]; 10 mmol/L TPN,only slightly below the mean values determined for Groups B and D
same,average ileal crypt depth (FIG. 11),[3]; 10 mmol/L TPN,close behind
same,average jejunal crypt depth (FIG. 10),[3]; 10 mmol/L TPN,gave the best results
same,average jejunal villous length (FIG. 9),[3]; 10 mmol/L TPN,gave the best results
same,improvement of the gut architecture in total,"[3]; 10 mmol/L TPN (Group C), versus other groups",most prominent improvement of the gut architecture
same,"% Δ from PN, Colon C (crypt depth)","[3]; 10 mmol/L TPN (Groups A, C, D)",+22%
same,"% Δ from PN, Duodenum C (crypt depth)","[3]; 10 mmol/L TPN (Groups A, C, D)",+15%
same,"% Δ from PN, Duodenum V (villus height)","[3]; 10 mmol/L TPN (Groups A, C, D)",+35%
same,"% Δ from PN, Ileum C (crypt depth)","[3]; 10 mmol/L TPN (Groups A, C, D)",+7%
same,"% Δ from PN, Ileum V (villus height)","[3]; 10 mmol/L TPN (Groups A, C, D)",+16%
same,"% Δ from PN, Jejunum C (crypt depth)","[3]; 10 mmol/L TPN (Groups A, C, D)",+3%
same,"% Δ from PN, Jejunum V (villus height)","[3]; 10 mmol/L TPN (Groups A, C, D)",+26%
same,"% Δ from PN, Total Total (crypt + villus)","[3]; 10 mmol/L TPN (Groups A, C, D)",+124%
same,"% Δ from PN, Total C (crypt depth)",[3]; [5],+47%
same,"% Δ from PN, Total V (villus height)",[3]; [5],+77%
same,Crypt (total),[3]; [6],+
same,Villus (total),[3]; [6],+
same,Total crypt depth,[3]; [4],+
same,Total villus height,[3]; [4],+
same,"gut architecture, systemic and local inflammation and systemic and local immunity (overall)",[3]; versus the Group which obtained standard PN,especially beneficial
